Drawing on ChEMBL document CHEMBL4483862, “Open-source discovery of chemical leads for next-generation chemoprotective antimalarials” (2018), this text covers IC50 and IC90 for 27 compounds.

For this assay, the system named is Plasmodium berghei. The assay is described as follows: Luciferase/luciferin-expressing antifolate-resistant parasites were used to infect a culture of HepG2 cells that were pre-incubated with compounds. Infected hepatocytes emit light due to the luciferase reaction. Assay results are presented as the percent inhibition of light emission compared to control. […]. Type of assay: functional. The following applies: sporozoite; for IC90: read-out: LUCIFERASE INFECTION ASSAY - IC90.

A word on the IC50: it is the midpoint of a concentration-inhibition curve. In general, IC90 refers to the concentration needed for an effect of 90%.

SMILES strings stand for the structures.

Take `CCN(CC(=O)Nc1ccccc1-c1ccccc1)Cc1nc(O)c2ccccc2n1`: the IC90 amounted to 7.89 µM. Where the note is “FFLUC_HILL_SLOPE 18, FFLUC_R_SQUARED 0.273, HEPG2TOX_HILL_SLOPE 1.8, HEPG2TOX_R_SQUARED 0.962, PBLUC_HILL_SLOPE 1.44, PBLUC_R_SQUARED 0.751, read-out: LUCIFERASE INFECTION ASSAY - IC50”, the IC50 was 1.72 µM.
In the case of `Cc1cccc(N2CCN(C(=O)c3ccc4[nH]c(C)c(C)c4c3)CC2)c1C`, the IC90 amounted to 1.14 µM. Further, where the note is “FFLUC_HILL_SLOPE 18.8, FFLUC_R_SQUARED 0.39, HEPG2TOX_HILL_SLOPE 1.29, HEPG2TOX_R_SQUARED 0.937, PBLUC_HILL_SLOPE 10.9, PBLUC_R_SQUARED 0.355, read-out: LUCIFERASE INFECTION ASSAY - IC50”, the IC50 is 0.935 µM.
Consider `N#C/C(=C\c1ccc(C(F)(F)F)cc1)c1c[nH]c2ccccc12`, for which the IC90 was above 10.6 µM. Also, the IC50 (FFLUC_HILL_SLOPE 17.8, FFLUC_R_SQUARED 0.181, PBLUC_HILL_SLOPE 2.5, PBLUC_R_SQUARED 0.114, read-out: LUCIFERASE INFECTION ASSAY - IC50) is above 10.6 µM.
Regarding `COc1ccc(-c2cnc3ccc(-c4cccc(Cl)c4)nn23)cc1OC`, the IC90 was 5.25 µM. The IC50 (FFLUC_HILL_SLOPE 18.1, FFLUC_R_SQUARED 0.385, HEPG2TOX_HILL_SLOPE 1.42, HEPG2TOX_R_SQUARED 0.94, PBLUC_HILL_SLOPE 1.13, PBLUC_R_SQUARED 0.747, read-out: LUCIFERASE INFECTION ASSAY - IC50) was determined as 0.748 µM.
Consider `Oc1c(Cn2c(=S)sc3ccccc32)cc(Cl)c2cccnc12`, for which the IC90 was 1.24 µM. For the same compound, for the setting “FFLUC_HILL_SLOPE 19.2, FFLUC_R_SQUARED 0.535, HEPG2TOX_HILL_SLOPE 1.74, 1.21, HEPG2TOX_R_SQUARED 0.199, 0.803, PBLUC_HILL_SLOPE 4.66, PBLUC_R_SQUARED 0.802, read-out: LUCIFERASE INFECTION ASSAY - IC50”, the IC50 was 0.772 µM.
As for `Nc1ncnc(N/N=C/c2ccc(O)cc2O)c1[N+](=O)[O-]`, the IC90 was above 10 µM. In addition, the IC50 (FFLUC_HILL_SLOPE 17.8, FFLUC_R_SQUARED 0.491, HEPG2TOX_HILL_SLOPE 1.97, HEPG2TOX_R_SQUARED 0.831, read-out: LUCIFERASE INFECTION ASSAY - IC50) was above 10 µM.
With `Nc1c(C(=O)c2ccccc2O)cnn1-c1ccccc1C(F)(F)F`, the IC90 stood at 3.04 µM. Further, where the note is “FFLUC_HILL_SLOPE 18.9, FFLUC_R_SQUARED 0.573, PBLUC_HILL_SLOPE 1.34, PBLUC_R_SQUARED 0.647, read-out: LUCIFERASE INFECTION ASSAY - IC50”, the IC50 amounted to 0.594 µM.
For the compound `COc1cccc(-c2nc(CSc3nc4ccccc4c(=O)n3C)cs2)c1`, the IC90 was found to be 3.7 µM. In addition, the IC50 (FFLUC_HILL_SLOPE 18, FFLUC_R_SQUARED 0.516, HEPG2TOX_HILL_SLOPE 5.55, HEPG2TOX_R_SQUARED 0.861, PBLUC_HILL_SLOPE 17.5, PBLUC_R_SQUARED 0.299, read-out: LUCIFERASE INFECTION ASSAY - IC50) stood at 3.27 µM.
As to `CCC(C)NC(=O)c1c(NC(=O)c2cccc(OC)c2)nc2ccc(C)cn12` (centres undefined), the IC90 was above 8.67 µM. Besides, where the note is “FFLUC_HILL_SLOPE 19.6, FFLUC_R_SQUARED 0.348, HEPG2TOX_HILL_SLOPE 6.15, HEPG2TOX_R_SQUARED 0.729, PBLUC_HILL_SLOPE 3.4, PBLUC_R_SQUARED 0.659, read-out: LUCIFERASE INFECTION ASSAY - IC50”, the IC50 worked out at 5.09 µM.
Consider `CC(=O)Nc1cccc(/C(C)=N/n2c(-c3cccc([N+](=O)[O-])c3)cs/c2=N\c2c(C)cccc2C)c1`, for which the 90% effect concentration (IC90) stood at 4.17 µM. In addition, the IC50 (FFLUC_HILL_SLOPE 18.6, FFLUC_R_SQUARED 0.557, PBLUC_HILL_SLOPE 12.4, PBLUC_R_SQUARED 0.7, read-out: LUCIFERASE INFECTION ASSAY - IC50) was determined as 3.49 µM.
With `COC(=O)C1=C(Nc2ccc(OC(=O)Nc3cccc(Cl)c3)cc2)CSC1`, the IC90 is above 8.15 µM. Also, the IC50 (FFLUC_HILL_SLOPE 18, FFLUC_R_SQUARED 0.412, read-out: LUCIFERASE INFECTION ASSAY - IC50) is above 8.15 µM.
Consider `O=C(Nc1nonc1-c1cccs1)c1sc2cc(Cl)ccc2c1Cl`, for which the IC90 is 2.76 µM. Besides, where the note is “FFLUC_HILL_SLOPE 17.9, FFLUC_R_SQUARED 0.511, HEPG2TOX_HILL_SLOPE 2.63, HEPG2TOX_R_SQUARED 0.88, PBLUC_HILL_SLOPE 16.1, PBLUC_R_SQUARED 0.687, read-out: LUCIFERASE INFECTION ASSAY - IC50”, the IC50 is 2.41 µM.
For `O=C(O)c1cccc2cccc([S+]([O-])c3ccccc3CO)c12` (centres undefined), the IC90 was above 10.1 µM. Moreover, the IC50 (FFLUC_HILL_SLOPE 17.8, FFLUC_R_SQUARED 0.335, read-out: LUCIFERASE INFECTION ASSAY - IC50) is above 10.1 µM.
With `Cc1c(Cl)cccc1NC(=O)CCc1nc(C(C)C)no1`, the IC90 was above 10 µM. Besides, the IC50 (FFLUC_HILL_SLOPE 18.3, FFLUC_R_SQUARED 0.35, read-out: LUCIFERASE INFECTION ASSAY - IC50) is above 10 µM.
Take `Cc1cc(C)nc(-n2nc(Nc3ccccc3)cc2Nc2ccccc2)n1`: the IC90 was above 10 µM. In addition, the IC50 (FFLUC_HILL_SLOPE 18.6, FFLUC_R_SQUARED 0.489, PBLUC_HILL_SLOPE 15, PBLUC_R_SQUARED 0.577, read-out: LUCIFERASE INFECTION ASSAY - IC50) came to 9.07 µM.
Take `N#CC(C#N)=C/C=C(/Sc1nc(-c2ccccc2)cs1)c1ccc(Cl)cc1`: the IC90 was above 8.13 µM. In addition, the IC50 (FFLUC_HILL_SLOPE 19.5, FFLUC_R_SQUARED 0.704, PBLUC_HILL_SLOPE 6.45, PBLUC_R_SQUARED 0.183, read-out: LUCIFERASE INFECTION ASSAY - IC50) was above 8.13 µM.
In the case of `CC(C)c1ccc2c(c1)/C(=N/NC(=S)NCCc1ccccc1)C(=O)N2`, the IC90 came to 8.12 µM. Moreover, the IC50 (FFLUC_HILL_SLOPE 19.2, FFLUC_R_SQUARED 0.695, HEPG2TOX_HILL_SLOPE 7.84, HEPG2TOX_R_SQUARED 0.253, PBLUC_HILL_SLOPE 4.58, PBLUC_R_SQUARED 0.343, read-out: LUCIFERASE INFECTION ASSAY - IC50) is 5.02 µM.
Take `Cc1ccc(-c2nnc(N/N=C3/C=C(c4ccccc4)C(O)(c4ccccc4)C3)c3ccccc23)cc1C` (centres undefined): the IC90 was above 10 µM. Besides, the IC50 (FFLUC_HILL_SLOPE 18, FFLUC_R_SQUARED 0.659, PBLUC_HILL_SLOPE 2.04, PBLUC_R_SQUARED 0.344, read-out: LUCIFERASE INFECTION ASSAY - IC50) was 6.48 µM.
With `COc1cc(OC)cc(-c2cnc3cnc(-c4cccc(N)c4)cn23)c1`, the IC90 is above 9.53 µM. The IC50 (FFLUC_HILL_SLOPE 17.8, FFLUC_R_SQUARED 0.255, PBLUC_HILL_SLOPE 12.5, PBLUC_R_SQUARED 0.443, read-out: LUCIFERASE INFECTION ASSAY - IC50) was 9.41 µM.
`O=C(Nc1cccc(C2NCC(c3ccccc3Cl)c3c2[nH]c2ccccc32)c1)c1ccc(Cl)cc1` (centres undefined): the IC90 was above 10 µM. In addition, where the note is “FFLUC_HILL_SLOPE 18, FFLUC_R_SQUARED 0.972, PBLUC_HILL_SLOPE 3.03, PBLUC_R_SQUARED 0.515, read-out: LUCIFERASE INFECTION ASSAY - IC50”, the IC50 came out at 7.4 µM.
As to `Cc1nc(N2N=C3/C(=C/c4ccc(F)cc4)CCCC3C2c2ccc(F)cc2)sc1C(=O)O` (centres undefined), the IC90 is above 10 µM. The IC50 (FFLUC_HILL_SLOPE 19.4, FFLUC_R_SQUARED 0.522, read-out: LUCIFERASE INFECTION ASSAY - IC50) is above 10 µM.
As for `O=S(=O)(Nc1ccc(Oc2cc(C(F)(F)F)cc(C(F)(F)F)c2)cc1)c1cc(C(F)(F)F)cc(C(F)(F)F)c1`, the IC90 turned out to be 3.81 µM. The IC50 (FFLUC_HILL_SLOPE 18.8, FFLUC_R_SQUARED 0.264, HEPG2TOX_HILL_SLOPE 15.6, HEPG2TOX_R_SQUARED 0.875, PBLUC_HILL_SLOPE 191, PBLUC_R_SQUARED 0.155, read-out: LUCIFERASE INFECTION ASSAY - IC50) was found to be 3.76 µM.
`CCOC(=O)c1c(-c2ccc(F)cc2)csc1NC(=O)CSc1nc2c(c(-c3ccccc3)c1C#N)C(=O)CC(C)(C)C2`: the IC90 was above 10 µM. The IC50 (FFLUC_HILL_SLOPE 18.8, FFLUC_R_SQUARED 0.892, read-out: LUCIFERASE INFECTION ASSAY - IC50) is above 10 µM.
With `CC(C)NC(=O)c1c(NC(=O)c2cc(F)cc(F)c2)nc2ccccn12`, the IC90 is 1.12 µM. Also, the IC50 (FFLUC_HILL_SLOPE 17.9, FFLUC_R_SQUARED 0.386, HEPG2TOX_HILL_SLOPE 1.01, HEPG2TOX_R_SQUARED 0.782, PBLUC_HILL_SLOPE 15.7, PBLUC_R_SQUARED 0.648, read-out: LUCIFERASE INFECTION ASSAY - IC50) stood at 0.969 µM.
In the case of `Cn1c(-c2ccco2)nc2cnc(Nc3cccc(C(F)(F)F)c3)cc21`, the IC90 was above 10 µM. Further, the IC50 (FFLUC_HILL_SLOPE 19, FFLUC_R_SQUARED 0.549, HEPG2TOX_HILL_SLOPE 17, HEPG2TOX_R_SQUARED 0.382, PBLUC_HILL_SLOPE 1.81, PBLUC_R_SQUARED 0.343, read-out: LUCIFERASE INFECTION ASSAY - IC50) worked out at 8.8 µM.
For `O=c1c(Cl)c(Cl)cnn1-c1c(Cl)cc(C(F)(F)F)cc1Cl`, the IC90 amounted to 1.61 µM. In addition, where the note is “FFLUC_HILL_SLOPE 19, FFLUC_R_SQUARED 0.471, HEPG2TOX_HILL_SLOPE 2.99, HEPG2TOX_R_SQUARED 0.99, PBLUC_HILL_SLOPE 1.54, PBLUC_R_SQUARED 0.797, read-out: LUCIFERASE INFECTION ASSAY - IC50”, the IC50 was determined as 0.388 µM.
On to `O=[N+]([O-])c1cc(C(F)(F)F)ccc1N1CCCN(C(=S)Nc2cccc(C(F)(F)F)c2)CC1`, for which the concentration for an effect of 90% (IC90) is above 6.7 µM. Where the note is “FFLUC_HILL_SLOPE 18.8, FFLUC_R_SQUARED 0.397, HEPG2TOX_HILL_SLOPE 0.504, HEPG2TOX_R_SQUARED 0.366, read-out: LUCIFERASE INFECTION ASSAY - IC50”, the IC50 was above 6.7 µM.
